Reference: patent publication US6939686B2, “Methodology of using raman imaging microscopy for evaluating drug action within living cells” (Southwest Research Institute, priority 2000, dated 2005)

Test system: MDA435 breast cancer cells
Experiment: Ratio Raman imaging of drug uptake and distribution in a single living cell
Assay type: cell-based
Experimental: Raman imaging of the cell-drug interactions consists of several steps. First, the Raman spectrum of the drug is measured. From the Raman spectrum, the locations and relative intensities of the Raman peaks (or Raman modes) is determined. The combination of the multiple Raman peaks and their relative intensities provides a unique fingerprint of the drug. In the preferred embodiment, the Raman spectrum of the anticancer drug taxol was measured as illustrated in FIG. 1. From the spectrum the most significant Raman mode is 1002 cm^−1.
In the preferred embodiment the Raman signal of a breast tumor cell was studied and the Raman spectrum was measured. […] The laser beam was focused in the cell cytoplasm and nucleus areas to determine if there was any difference in their spectra. Each measurement was 120 seconds long. FIGS. 2 and 3 illustrate the Raman spectra of the cytoplasm and nucleus of the breast tumor cell, respectively. […]
The acquired Raman images are then processed by smoothing noises, de-blurring, and removing the intensity contributed from the fluorescence. […]
The restored Raman signal still contained the non-uniform illumination effect and fluorescent contribution, illustrated as follows: s(x,y)=K(x,y)·i(x,y)·t+Ko(x,y)·i(x,y)·t. From the Raman spectra illustrated in FIGS. 1-3, Raman peaks are riding on a broadband baseline that is contributed from the fluorescence. […]

CC(=O)O[C@H]1C(=O)[C@@]2(C)[C@H]([C@H](OC(=O)c3ccccc3)[C@]3(O)C[C@H](OC(=O)[C@H](O)[C@@H](NC(=O)c4ccccc4)c4ccccc4)C(C)=C1C3(C)C)[C@]1(OC(C)=O)CO[C@@H]1C[C@@H]2O [taxol]
drug distribution within the cell (ratio Raman image at 1002 cm^−1) (breast tumor cell exposed to 0.3 mg/ml taxol solution for one hour, FIG. 5(b)): taxol entered the tumor cell from the top membrane and gradually penetrated into the center of the cell | drug distribution at different depths of the cell (stack of ratio Raman images) (breast tumor cell treated with 0.3 mg/ml taxol solution for one hour, FIG. 7): More drug entered the cell from the middle layer (Z=6 μm)
